How the values were obtained:
mice [1] = test: Effect on the coordination of balancing in mice; format: in vivo; conditions: intravenous injection
Method: Experiments were conducted in 9 administration groups, L-, D- and racemic ornidazole were administered to them at doses of 40, 80 and 160 mg/kg. Positive control group received chlorpromazine at a dose of 3 mg/kg.

mice [2] = test: Hypnotic effect of intravenous injection in mice (righting reflex); format: in vivo; conditions: mice, within 30 minutes
Method: White mice, half males and half females, fasted for eight hours. The disappearance of righting reflex in mice was observed. The number of animals who lost their righting reflex was recorded in 30 minutes after drug administration.

[3] = In vivo pharmacokinetics in Beagle dogs
Method: The clinical dose of ornidazole is 500 mg for human. By calculating, based on body surface area, the pharmacokinetic experimental dose in Beagle dogs was 13 mg/kg in vivo. Six adult beagle dogs (half males and half females, body weight of 9˜11.5 kg) were randomly divided into three groups. According to crossover design, intravenous injection of L-, D-, and racemic ornidazole were administered in turn to each dog every other week (with one week washout period in between). 2 ml of blood was collected from the vein located at the forelimb of the dogs before drug administration and 0.083, 0.5, 1.0, 2.0, 4.0, 6.0, 8.0, 12.0, 16.0, 24.0 hours after drug administration, which was then placed in the heparinized tube, followed by centrifugation to obtain the plasma. Plasma concentration of drug was determined by HPLC. Pharmacokinetics parameters were estimated using the non-compartmental models. The corresponding pharmacokinetics parameters were obtained by BAPP2.0 using the data of plasma concentration of blood with time obtained above.

Beagle dogs = conditions: dog, in vivo, iv, 200 mg/kg
From the text: 2. Toxicity Test in Beagle Dogs (Non-Rodent) After Intravenous Administration of L-ornidazole for Two Weeks
Beagle dogs, 4 dogs in each group with half females and half males, were divided into L-, D-, and racemic ornidazole groups.

Kunming mice [4] = test: Acute toxicology test, LD50 in mice (Bliss method); format: in vivo; conditions: oral gavage; for Number of dead animals: 10 animals
[5] = tested on: bacteroides (including Escherichia coli) infection; test: Abdominal infection model in mice, ED50; format: in vivo, Kunming white mice; conditions: death observed 7 days
Method: (§1) Kunming white mice, body weight of 20±2 g, half males and half females. 10 mice in each dose group with half females and half males. Abdominal infection models were prepared with the entire animal (mice) and treatments were conducted with the testing drugs. The therapeutical efficacy was observed and expressed as ED50 (half effective dose). Drugs were administered twice by oral gavage (administered immediately after infection for one and 6 hours after infection for the other one). The death status of animals was observed consecutively for seven days after infection and being treated.

[6] = tested on: peptostreptococcus (including Escherichia coli); test: Abdominal infection model in mice, ED50; format: in vivo, Kunming white mice; conditions: death observed 7 days
Method: as §1

Kunming mice [7] = test: Acute toxicology test, LD50 in mice (Bliss method); format: in vivo; conditions: for LD50: observed 14 days; for Number of dead animals: 10 animals
Method: Kunming mice, half males and half females, with body weights of 18˜22 g, were administered the testing drug solution by injection 8 hours after fasting. The death status of animals was consecutively observed for 14 days after administration.

mice [8] = test: Effects on spontaneous activities in mice; format: in vivo; conditions: for spontaneous activity compared with the vehicle control group: recorded at 0.5, 1, 2, 3 and 4 hours
Method: Chlorpromazine was administered at dose of […] in the positive control group, and the same volume of propylene glycol containing 0.9% sodium chloride injection was administered in the vehicle control group. Spontaneous activity was recorded at 0.5, 1, 2, 3 and 4 hours after drug administration. The injection volume was 0.2 ml/10 g and the administration rate was 0.2 ml/10 sec.

mice [9] = test: Effect on the hypnotic effect induced by sodium thiopental in mice; conditions: 40 mg/kg sodium thiopental i.p. 30 minutes later
Method: The same volume of 0.9% sodium chloride injection containing propylene glycol was administered in the vehicle control group. 30 minute after drug administration, 40 mg/kg of sodium thiopental was administered to mice by intraperitoneal injection. The time for the loss of righting reflex and the time for the recovery were recorded. The injection volume was 0.2 ml/10 g, the administration rate was 0.2 ml/10 sec.

[10] = beagle dogs, individual intravenous dose 13 mg/kg, plasma
[11] = oral gavage twice (immediately and 6 hours after infection)

Cc1ncc([N+](=O)[O-])n1C[C@H](O)CCl [L-ornidazole, 1-(3-chloro-2-S-(−)-hydroxypropyl)-2-methyl-5-nitroimidazole]
effect on the coordination and balance (number of falling animals) (mice [1]; 160 mg/kg): no significant effect | effect on the coordination and balance, compared with the vehicle control group (mice [1]; doses of 40 and 80 mg/kg): no significant effect | number of mice with loss in righting reflex (mice [2]; individual dose of 160 mg/kg intravenous): No loss in righting reflex | loss in righting reflex (mice [2]; individual dose of 40 or 80 mg/kg intravenous): No loss in righting reflex | AUC0-t (area under curve) [3, 10]: 90940 ± 8330 ng·h/mL | Cl (clearance) [3, 10]: 1.22 ± 0.13 L/h | MRT (mean retention time of drugs) [3, 10]: 10.06 ± 1.57 h | Vβ (elimination volume of distribution) [3, 10]: 12.23 ± 1.84 L | t1/2 (half life) ([3]; beagle dogs, individual intravenous dose 13 mg/kg, plasma, HPLC, non-compartmental): 6.97 ± 1.09 h | in vivo transformation of enantiomers between L- and D-ornidazole ([3]; dog, in vivo, iv): not occurred | food intake and body weight (Beagle dogs): Food intake of testing animals was inhibited while body weight of the testing animals was inhibited to a certain extent | histological examination of organs (Beagle dogs): Significant pathological changes were not found | manifestations (toxicity and side effects) (Beagle dogs): merely drooling, vomiting, involuntary urination and the like | recovery time of manifestations (Beagle dogs): 1 to 2 h | toxic effects (Beagle dogs): significant toxic effects were not observed | Number of dead animals (Kunming mice [4]; 655.4 mg/kg): 0 | Number of dead animals (Kunming mice [4]; 819.2 mg/kg): 1 | Number of dead animals (Kunming mice [4]; 1024 mg/kg): 4 | Death rate (Kunming mice [4]; 1280 mg/kg): 80% | Number of dead animals (Kunming mice [4]; 1280 mg/kg): 8 | Probability units (Y) (Kunming mice [4]; 1600 mg/kg): 6.96 | ED50 (half effective dose) [5, 11]: 31.0 mg/kg | 95% CI of ED50 ([5]; oral gavage twice): 43.3˜22.2 mg/kg | ED50 (half effective dose) [6, 11]: 42.0 mg/kg | 95% CI of ED50 ([6]; oral gavage twice): 50.9˜34.6 mg/kg | LD50 (Kunming mice [7]; intraperitoneal injection): 1378 mg/kg | Death rate (Kunming mice [7]; intraperitoneal, 1044 mg/kg): 0% | Probability units (Y) (Kunming mice [7]; intraperitoneal, 1044 mg/kg): 3.27 | Number of dead animals (Kunming mice [7]; intraperitoneal, 1044 mg/kg): 0 | Death rate (Kunming mice [7]; intraperitoneal, 1228 mg/kg): 30% | Probability units (Y) (Kunming mice [7]; intraperitoneal, 1228 mg/kg): 4.24 | Number of dead animals (Kunming mice [7]; intraperitoneal, 1228 mg/kg): 3 | Death rate (Kunming mice [7]; intraperitoneal, 1445 mg/kg): 60% | Probability units (Y) (Kunming mice [7]; intraperitoneal, 1445 mg/kg): 5.20 | Number of dead animals (Kunming mice [7]; intraperitoneal, 1445 mg/kg): 6 | Death rate (Kunming mice [7]; intraperitoneal, 1700 mg/kg): 90% | Probability units (Y) (Kunming mice [7]; intraperitoneal, 1700 mg/kg): 6.17 | Number of dead animals (Kunming mice [7]; intraperitoneal, 1700 mg/kg): 9 | Death rate (Kunming mice [7]; intraperitoneal, 2000 mg/kg): 100% | Probability units (Y) (Kunming mice [7]; intraperitoneal, 2000 mg/kg): 7.13 | Number of dead animals (Kunming mice [7]; intraperitoneal, 2000 mg/kg): 10 | LD50 (Kunming mice [7]; intravenous injection): 332 mg/kg | Death rate (Kunming mice [7]; intravenous, 243 mg/kg): 0% | Probability units (Y) (Kunming mice [7]; intravenous, 243 mg/kg): 1.06 | Number of dead animals (Kunming mice [7]; intravenous, 243 mg/kg): 0 | Death rate (Kunming mice [7]; intravenous, 270 mg/kg): 0% | Probability units (Y) (Kunming mice [7]; intravenous, 270 mg/kg): 3.04 | Number of dead animals (Kunming mice [7]; intravenous, 270 mg/kg): 0 | Death rate (Kunming mice [7]; intravenous, 300 mg/kg): 20% | Probability units (Y) (Kunming mice [7]; intravenous, 300 mg/kg): 3.72 | Number of dead animals (Kunming mice [7]; intravenous, 300 mg/kg): 2 | Death rate (Kunming mice [7]; intravenous, 333 mg/kg): 30% | Probability units (Y) (Kunming mice [7]; intravenous, 333 mg/kg): 5.05 | Number of dead animals (Kunming mice [7]; intravenous, 333 mg/kg): 3 | Death rate (Kunming mice [7]; intravenous, 370 mg/kg): 100% | Probability units (Y) (Kunming mice [7]; intravenous, 370 mg/kg): 6.38 | Number of dead animals (Kunming mice [7]; intravenous, 370 mg/kg): 10 | Death rate (Kunming mice [7]; oral gavage, 655.4 mg/kg): 0% | Probability units (Y) (Kunming mice [7]; oral gavage, 655.4 mg/kg): 2.87 | Death rate (Kunming mice [7]; oral gavage, 819.2 mg/kg): 10% | Probability units (Y) (Kunming mice [7]; oral gavage, 819.2 mg/kg): 3.86 | Death rate (Kunming mice [7]; oral gavage, 1024 mg/kg): 40% | Probability units (Y) (Kunming mice [7]; oral gavage, 1024 mg/kg): 4.86 | Probability units (Y) (Kunming mice [7]; oral gavage, 1280 mg/kg): 5.86 | Death rate (Kunming mice [7]; oral gavage, 1600 mg/kg): 100% | Number of dead animals (Kunming mice [7]; oral gavage, 1600 mg/kg): 10 | LD50 (Kunming mice [7]; oral gavage): 1069 mg/kg | spontaneous activity compared with the vehicle control group (mice [8]; 40 mg/kg intravenous): significant reduction in spontaneous activity was not observed | recovery of spontaneous activity (mice [8]; 80 mg/kg intravenous): gradually become normal after 2 hours | spontaneous activity compared with the vehicle control group (mice [8]; 80 mg/kg intravenous): reduced significantly at 0.5 and 1 hour | recovery of spontaneous activity (mice [8]; 160 mg/kg intravenous): gradually become normal after 3 hours | spontaneous activity compared with the vehicle control group (mice [8]; 160 mg/kg intravenous): reduced significantly at 0.5, 1 and 2 hours | duration of sleeping induced by sodium thiopental, compared with the vehicle control group (mice [9]; 40 mg/kg intravenous): did not significantly extend | sleep latency induced by sodium thiopental, compared with the vehicle control group (mice [9]; 40 mg/kg intravenous): no significant reduction | duration of sleeping induced by sodium thiopental, compared with the vehicle control group (mice [9]; 80 mg/kg intravenous): significantly extended | sleep latency induced by sodium thiopental, compared with the vehicle control group (mice [9]; 80 mg/kg intravenous): no significant reduction

Source: patent publication US8530507B2, “Use of levo-ornidazole in the preparation of anti-anaerobic bacteria infection drugs” (priority 2005, dated 2013)
